Reference: patent publication US9890111B2, “Crystal structure of bifunctional transglycosylase PBP1b from E. coli and inhibitors thereof” (Academia Sinica, priority 2008, dated 2018)
Converted amounts (≈) assume the structure as drawn.

What was measured:
[1] = biological target: T1, penicillin-binding protein 1b from E. coli (transglycosylase) (Escherichia coli, UniProt P02919); assay: Lipid II polymerization / transglycosylase (TG) activity assay; type: biochemical
T1 construct: PBP1b[58-804] was amplified from E. coli genomic DNA and cloned into the expression vector pET15b; His6 (N, cleaved yes); made in house; host or cells: E. coli BL21(DE3)
T1 sequence (P02919 58-804): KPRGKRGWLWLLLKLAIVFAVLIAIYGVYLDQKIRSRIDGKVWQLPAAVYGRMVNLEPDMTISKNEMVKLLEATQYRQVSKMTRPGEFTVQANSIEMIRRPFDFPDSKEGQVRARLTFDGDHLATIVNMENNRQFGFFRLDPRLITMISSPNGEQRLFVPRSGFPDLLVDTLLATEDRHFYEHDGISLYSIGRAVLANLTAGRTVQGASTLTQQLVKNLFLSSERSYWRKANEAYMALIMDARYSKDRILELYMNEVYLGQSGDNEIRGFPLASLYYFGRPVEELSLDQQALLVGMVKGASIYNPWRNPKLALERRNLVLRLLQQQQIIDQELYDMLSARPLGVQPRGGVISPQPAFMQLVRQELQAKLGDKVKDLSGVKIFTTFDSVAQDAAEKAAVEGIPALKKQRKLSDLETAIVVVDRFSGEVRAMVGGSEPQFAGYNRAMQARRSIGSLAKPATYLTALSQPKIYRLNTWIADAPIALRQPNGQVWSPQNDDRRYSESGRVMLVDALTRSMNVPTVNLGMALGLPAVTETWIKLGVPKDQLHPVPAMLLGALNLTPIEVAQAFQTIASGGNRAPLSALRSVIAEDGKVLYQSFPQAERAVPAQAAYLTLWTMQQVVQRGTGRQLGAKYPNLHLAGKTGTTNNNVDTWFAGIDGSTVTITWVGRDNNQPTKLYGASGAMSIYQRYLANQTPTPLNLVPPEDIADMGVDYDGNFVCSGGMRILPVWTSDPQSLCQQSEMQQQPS
Method: Lipid II polymerization assays were carried out by incubating 100 μM fluorophore-labeled lipid II and penicillin-binding protein 1b from E. coli in tubes containing 10 ng/μL N-acetyl muramidase in 50 mM Tris.HCl (pH 8.0), 10 mM MgCl2, 0.1% Triton X-100, 10% DMSO, and 15% MeOH for 30 minutes (Van Nieuwenhze et al. J Am Chem Soc 2002, 124, 3656.). The fluorophore can be dansyl chloride, NBD, BODIPY, fluorescein. Reaction supernatants were then injected onto an anion-exchange HPLC column (SAX1, Supelco Co.) and eluted with a linear gradient of ammonium acetate (20 mM to 0.5 M) in methanol. The eluant was monitored for fluorescence with λex=466 nm and λem=535 nm.
Purified protein was concentrated in 20 mM Tris-HCl (pH 8.0), 300 mM NaCl, and 1 mM DDM. Instead of using Dansyl lipid II, 6-(N-(7-nitrobenz-2-oxa-1,3-diazol-4-yl)amino) hexanoyl (NBD)-labeled Lipid II was prepared as described (Taubes G (2008) Science 321:356-361; Payne D J (2008) Science 321:1644-1645) and used as a substrate to measure TG enzymatic activity, with approach similar to what has been described previously (Holtje J V (1998) Microbiol Mol Biol Rev 62:181-203). Assays were carried out by using the following condition: NBD-Lipid II, 20 nM protein, 50 mM Tris HCl (pH 8.0), 10 mMCaCl2, 0.085% decyl PEG (Anatrace), and 15% MeOH at 37° C. for 0, 1, 3, 5, 7, 9, 20, and 30 min. The concentration of NBD-Lipid II was varied from 1 to 100 μM to determine the rate of the TG activity. After the reaction, 200 μM moenomycin was added to stop the reaction, and 13 μM muramidase (Sigma-Aldrich) was added to digest the TG products to result in NBD-Lipid II without lipid tails. The fluorescent signal decrease of substrate and increase of NBD-Lipid II without lipid tails were detected by anion-exchange column SAX1 (Supelco) on HPLC (Hitachi). The elution procedures was a linear gradient of ammonium acetate (20 mM to 1 M) in MeOH monitored at λexcitation=466 nm and λemission=535 nm. The kinetic parameter was estimated by following the Michaelis-Menten equation. To investigate the importance of transmembrane (TM) helix, PBP1b and PBP1bΔTM (residues Met-1 to Leu-87 were removed) were extracted with the buffer containing 20 mM Tris-HCl (pH 8.0), 300 mM NaCl, and 13 mM FOS-CHOLINE-14 (Anatrace). The protein was purified by nickel chelation chromatography in the presence of 1 mM DDM. The activity assay was carried out by using the following condition: 12 μM NBD-Lipid II, 20 nM protein, 50 mM Tris-HCl (pH 8.0), 10 mM CaCl2, 0.085% decyl PEG, and 15% MeOH at 37° C. for time 0, 1, 3, 5, 7, 9, 20, and 30 min. The initial velocity was used to compare the activity of full-length PBP1b and PBP1bΔTM.

[2] = test system: Escherichia coli (ATCC 25922, EC); assay: Minimal inhibitory concentration (MIC), EC; type: cell-based; conditions: ATCC25922; Escherichia coli ATCC 25922; read-out: MIC EC
Method: (§1) The minimal inhibitory concentration (MIC) of tested compounds was determined following the NCCLS standard. The experiments were conducted in 96-well microtiter plates using two-fold dilutions in Muller-Hilton broth with (Streptococcus pneumonia) or without blood (Bacillus subtilis, Enterococcus faecalis, Staphylococcus aureus, Escherichia coli, MRSA, Actinetobacter baumannii, Pseudomonas aeruginosa, Stenotrophomonas maltophilia, and Mycobacterium smegmatis). Exponentially growing cells at 5×10^5 cells/ml were incubated with test compounds at various concentrations. After an 18 h to 24 h incubation at 37° C., MIC was determined as the minimal concentration of the compound that prevents bacterial growth.

[3] = test system: Mycobacterium smegmatis (ATCC11565, MS); assay: Minimal inhibitory concentration (MIC), MS; type: cell-based; conditions: Mycolicibacterium smegmatis, ATCC11565, Mycobacterium smegmatis ATCC11565; read-out: MIC MS
Method: as §1

[4] = test system: Staphylococcus aureus (ATCC29213, SA); assay: Minimal inhibitory concentration (MIC), SA; type: cell-based; conditions: Staphylococcus aureus, ATCC29213, Staphylococcus aureus ATCC29213; read-out: MIC SA
Method: as §1

E. coli PBP1b = E. coli PBP1b (Escherichia coli, UniProt P02919); assay: Fluorescence anisotropy (FA) binding assay; conditions: library screening
Sequence of E. coli PBP1b (P02919 whole entry): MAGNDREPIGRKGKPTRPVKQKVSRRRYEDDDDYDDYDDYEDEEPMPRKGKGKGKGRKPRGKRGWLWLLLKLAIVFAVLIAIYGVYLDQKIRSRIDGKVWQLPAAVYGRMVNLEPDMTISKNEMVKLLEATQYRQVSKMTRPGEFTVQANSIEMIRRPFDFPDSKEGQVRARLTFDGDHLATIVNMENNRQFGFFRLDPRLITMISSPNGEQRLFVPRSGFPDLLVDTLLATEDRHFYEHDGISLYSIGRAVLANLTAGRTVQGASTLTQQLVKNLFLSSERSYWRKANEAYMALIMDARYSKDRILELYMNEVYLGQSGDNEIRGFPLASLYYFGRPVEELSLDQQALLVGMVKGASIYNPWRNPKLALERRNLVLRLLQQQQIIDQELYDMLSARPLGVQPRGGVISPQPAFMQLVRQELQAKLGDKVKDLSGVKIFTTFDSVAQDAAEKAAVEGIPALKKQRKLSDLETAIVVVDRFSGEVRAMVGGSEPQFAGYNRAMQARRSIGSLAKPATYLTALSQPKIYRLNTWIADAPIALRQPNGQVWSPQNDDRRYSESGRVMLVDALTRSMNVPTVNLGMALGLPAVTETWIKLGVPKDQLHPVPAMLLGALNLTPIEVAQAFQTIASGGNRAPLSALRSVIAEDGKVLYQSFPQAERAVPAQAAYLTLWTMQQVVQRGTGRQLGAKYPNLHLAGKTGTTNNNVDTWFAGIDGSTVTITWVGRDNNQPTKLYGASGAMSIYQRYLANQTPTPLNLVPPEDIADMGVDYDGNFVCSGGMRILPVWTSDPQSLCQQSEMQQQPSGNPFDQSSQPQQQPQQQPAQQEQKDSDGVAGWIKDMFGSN
Method: Fluorescence anisotropy measurements were carried out in triplicates in the wells of 384-well or 1536-well plates using a fluorescence detector that is capable to measure fluorescence anisotropy or fluorescencepolarization. For examples, a laser fluorimetry equipped with a 488 nm laser (IsoCyte) from Blueshift Biotech, Inc., (Sunnyvale, Calif., USA) of aViewlux from Perkin Elmer has been used for the application. Various buffers, salts, pH values, and divalent cations (Ca^++, Mg^++, Co^++) were optimized for fluorescence anisotropy measurements. KD and KI determinations were carried out in 100 mM NaCl, 10 mM Tris, pH 8.0. Fluorescence anisotropy values (A) were calculated using the equation: A=(I∥−G*I^⊥)/(I∥+2G*I^⊥), where I∥ is the fluorescence intensity of emitted light parallel to excitation, I^⊥ is the fluorescence intensity of emitted light perpendicular to excitation, and G is the […] that corrects for instrument bias. The G factor is experimentally determined for each run using the probe-only well as the basal anisotropy.
A high-throughput FA assay for transglycosylase was performed as disclosed in co-pending U.S. application Ser. No. 12/354,717. Concentration-dependent changes in fluorescence anisotropy was observed when E. coli PBP1b bound to F-Moe. The maximum anisotropy value was 0.2. […]
KI and IC50 values were determined from competitive displacement assay. […]

[5] = test system: methicillin-resistant Staphylococcus aureus (ATCC33592, MRSA); assay: Minimal inhibitory concentration (MIC), MRSA; type: cell-based; conditions: Staphylococcus aureus, methicillin-resistant Staphylococcus aureus ATCC33592; read-out: MIC MRSA
Method: as §1

PBP = PBP (Escherichia coli, UniProt P02919); assay: PBP binding affinity by SPR; conditions: read-out: steady-state affinity (KD)
Sequence of PBP (P02919 58-804): as the sequence (P02919 58-804) above
Description: Candidate compounds to be tested were labeled with fluorescein (6-carboxyfluoresein N-hydroxysuccinimide ester) under basic conditions to prepare the fluorescent probe. One major concern about the fluorescent probe used in the FA assay is the probe itself; either the fluorophore or the structure modification, may interfere with the binding between the targeted protein and the small molecule. Therefore, the PBP binding affinities of Moe A and the fluorescent probe are compared using SPR.

Row | Compound | IC50 [1] | transglycosylase inhibition activity (in words) [1] | TG Activity at various concentration of cmpd: 25 μM ([1]; 25 μM compound, TG activity remaining (0% = full inhibition)) | remaining activity at 50 µM ([1]; read-out: TG Activity at various concentration of cmpd: 50 μM) | remaining activity at 100 µM ([1]; read-out: TG Activity at various concentration of cmpd: 100 μM) | MIC [2] | MIC [3] | MIC [4] | inhibition activity in fluorescence anisotropy (in words) (E. coli PBP1b) | MIC [5] | Kd (PBP)
1 | O=C(Nc1cc(Cl)ccc1Oc1ccccc1)c1cc(Br)cc(Br)c1O [Compound 009] | 45 µM | showed inhibition activities | 100% | 20% | 0% | > 256 µg/mL | 0.25 µg/mL (≈ 0.502 µM) | 0.5 µg/mL (≈ 1 µM) | showed inhibition activities | 0.25 µg/mL (≈ 0.502 µM) | –
2 | C=C(C/C=C(\C)CCC=C(C)C)CCC(C)(C)/C=C/CC/C(C)=C\CO[C@H](COP(=O)(O)O[C@H]1OC(C(N)=O)[C@@](C)(O)[C@H](OC(N)=O)C1O[C@@H]1OC(CO[C@@H]2OC(CO)[C@@H](O)[C@H](O)C2O)[C@@H](O[C@@H]2OC(C)[C@@H](O[C@@H]3OC(C(=O)NC4=C(O)CCC4=O)[C@H](O)[C@H](O)C3O)[C@H](O)C2NC(C)=O)[C@H](O)C1NC(C)=O)C(=O)O (some centres unmarked) [Moe A, Moenomycin A] | – | – | – | – | – | – | – | – | – | – | 0.44 µM
